The results in this text go back to ChEMBL document CHEMBL3217662 (Medchemcomm, 2011).

A short description of series [1]: Cytotoxicity against human HepG2 cells assessed as reduction in cell viability after 5 days by XTT assay. In kind it is cell-based. In general terms: Tetrazolium dyes change colour on reduction, which living cells bring about.
Series [2] can be described thus: Cytotoxicity against human MT2 cells assessed as reduction in cell viability after 5 days by XTT assay. The series is classed as cell-based.
In series [3] the test system is Human immunodeficiency virus 1. As to the kind of experiment: Antiviral activity against wild type HIV1 3B infected in human MT2 cells assessed as virus-induced cytopathic effect after 5 days by XTT assay. In kind it is functional, organism-based. The following applies: Human immunodeficiency virus 1, 3B, MT2, 120 h.
Series [4] relates to Human immunodeficiency virus 1. As to the kind of experiment: Fold resistance, ratio of EC50 for HIV1 3B harboring protease M46I/I50V mutant infected in human MT2 cells to EC50 for wild type HIV1 3B infected in human MT2 cells. The series is classed as functional.
For series [5], the system named is Human immunodeficiency virus 1. As to the kind of experiment: Fold resistance, ratio of EC50 for HIV1 3B harboring protease G48V/V82A/I84V/L90M mutant infected in human MT2 cells to EC50 for wild type HIV1 3B infected in human MT2 cells. The series is classed as functional.
A further series deals with Protease (Human immunodeficiency virus 1, UniProt Q9YQ12). In words: Inhibition of HIV1 protease using fluorogenic hexapeptide substrate (2-aminobenzoyl)Thr-Ile-Nle-(p-nitro)Phe-Gln-Arg by fluorimeter.
Series [6] concerns Human immunodeficiency virus 1. In words: Fold resistance, ratio of EC50 for HIV1 3B harboring protease I84V/L90M mutant infected in human MT2 cells to EC50 for wild type HIV1 3B infected in human MT2 cells. In kind it is functional.
The subject of series [7] is Human immunodeficiency virus 1. As to the kind of experiment: Fold resistance, ratio of EC50 for HIV1 3B harboring protease M46I/V82T/L90M mutant infected in human MT2 cells to EC50 for wild type HIV1 3B infected in human MT2 cells. In kind it is functional.
The subject of series [8] is Human immunodeficiency virus 1. As to the kind of experiment: Fold resistance, ratio of EC50 for HIV1 3B harboring protease D30N/54V/L90M mutant infected in human MT2 cells to EC50 for wild type HIV1 3B infected in human MT2 cells. The series is classed as functional.
The subject of series [9] is Human immunodeficiency virus 1. As to the kind of experiment: Fold resistance, ratio of EC50 for HIV1 3B harboring protease G48V/I54V/V82S mutant infected in human MT2 cells to EC50 for wild type HIV1 3B infected in human MT2 cells. In kind it is functional.
A short description of series [10]: (§1) Intrinsic clearance in human liver microsomes in presence of 1 uM COBI. In kind it is ADME. The following applies: liver microsomes, with COBI 1 uM, read-out: CLH. Background: Microsomes from liver hold many membrane-bound enzymes, among them those of drug oxidation.
Series [11] can be described thus: (§2) Intrinsic clearance in human liver microsomes in presence of 1 uM RTV. The series is classed as ADME. The settings on record: liver microsomes, with RTV 1 uM, read-out: CLH.
The nature of series [12]: Intrinsic clearance in human liver microsomes. The series is classed as ADME. The settings on record: read-out: CLH.
The nature of series [13]: Clearance in Beagle dog at 2 mg/kg, iv over 30 mins. The arrangement: dose 2 mg/kg, route intravenous. In kind it is ADME, organism-based, Canis lupus familiaris. The settings on record: in vivo.
In series [14] the test system is Human immunodeficiency virus 1. In words: Antiviral activity against wild type HIV1 3B infected in human MT2 cells assessed as fold resistance after 11 months incubation. In kind it is functional.
In series [15] the test system is Human immunodeficiency virus 1. As to the kind of experiment: Antiviral activity against wild type HIV1 3B infected in human MT2 cells assessed as virus-induced cytopathic effect after 5 days by XTT assay relative to in the presence of 50% pooled human serum. In kind it is functional. (Protection from cytopathic effect is a common read-out in antiviral testing.)

The nature of series [16]: Oral bioavailability in Beagle dog at 10 mg/kg in presence of 10 mg/kg COBI. The series is classed as ADME, organism-based, Canis lupus familiaris. The settings on record: in vivo.
Series [17] in a line: Oral bioavailability in Beagle dog at 10 mg/kg. The series is classed as ADME, organism-based, Canis lupus familiaris. The following applies: in vivo.
Series [18] relates to Liver microsome. The series is described as §1. In kind it is ADME. The following applies: microsomes.
Series [19] relates to Liver microsome. The description is as §2. The following applies: microsomes. In kind it is ADME.

Sequence of Protease (Q9YQ12 whole entry): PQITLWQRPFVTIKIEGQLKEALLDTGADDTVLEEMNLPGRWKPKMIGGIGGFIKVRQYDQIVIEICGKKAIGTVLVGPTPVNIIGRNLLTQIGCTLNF

The term CC50 denotes the concentration that lowers cell viability or growth by half. Usually EC50 stands for the concentration at which the effect is half-maximal. On to `CC(C)(C)NC(=O)[C@@H]1C[C@@H]2CCCC[C@@H]2CN1C[C@@H](O)[C@H](Cc1ccccc1)NC(=O)[C@H](CC(N)=O)NC(=O)c1ccc2ccccc2n1`, for which the CC50 at 120 h stood at 12400 nM in [1] and 32300 nM in series [2]. In [3], the half-maximal effective concentration (EC50) came to 13.6 nM.

By Ki is commonly meant the dissociation constant of the complex between target and ligand, obtained from inhibition or displacement. For `CC(C)CN(C[C@@H](O)[C@H](Cc1ccccc1)NC(=O)O[C@H]1CCOC1)S(=O)(=O)c1ccc(N)cc1`, the “Ratio EC50” value in series [4] stood at 159; in series [5] it was 20; in [6], 16.3; in series [7], 5.9; in [8], 0.8; in [9], 0.9. Further, the 50% cytotoxic concentration (CC50) at 120 h in series [1] was 98400 nM; in series [2] it was above 100000 nM. On Protease, this compound registered an inhibition constant Ki of 0.345 nM. Further, the EC50 in series [3] worked out at 24 nM.

What is called clearance is a measure of how efficiently the substance is removed, as volume per time. By bioavailability is commonly meant dose-corrected exposure relative to a reference, in per cent. In the case of `CCOP(=O)(COc1ccc(C[C@H](NC(=O)O[C@H]2CO[C@H]3OCC[C@H]32)[C@H](O)CN(CC(C)C)S(=O)(=O)c2ccc(OC)cc2)cc1)OCC`, the “Ratio EC50” value is 2.4 in series [4]; 0.6 in [5]; 0.7 in [6]; 0.9 in [7]; 0.2 in [8]; 2.7 in series [15]. In addition, the “Ratio EC50” value in [9] is reported as 0.1. The cytotoxic concentration (CC50) at 120 h was 61300 nM in [1] and above 100000 nM in series [2]. Also, affinity at Protease was put at a Ki of 0.0081 nM. Moreover, the values for the microsomal CLint in series [10], in series [11] and in series [12] were 1 µL/min/mg, 2.6 µL/min/mg and 9.2 µL/min/mg, respectively. The compound further had a clearance in series [13] of 35.5 mL/min/kg. Besides, the “fold change (FC)” value in [14] was 15. Also, the bioavailability in series [16] is 100%; in series [17], 6.9%. In addition, the concentration for a half-maximal effect (EC50) in series [3] stood at 3.5 nM.

As for `CC(C)CN(C[C@@H](O)[C@H](Cc1ccccc1)NC(=O)O[C@H]1CO[C@H]2OCC[C@H]21)S(=O)(=O)c1ccc(N)cc1`, the values for the CC50 at 120 h in series [1] and in series [2] were 95500 nM and above 100000 nM, respectively. The figures for the microsomal CLint in series [10], in series [11] and in series [12] were 0.9 µL/min/mg, 1.6 µL/min/mg and 30.9 µL/min/mg, respectively. Moreover, in [3], the concentration giving a half-maximal response (EC50) stood at 2.3 nM.

As to `COc1ccc(S(=O)(=O)N(CC(C)C)C[C@@H](O)[C@H](Cc2ccc(O)cc2)NC(=O)O[C@H]2CO[C@H]3OCC[C@H]32)cc1`, the results for the “Ratio EC50” value in series [4] and in [6] were 5.1 and 0.8, respectively. At Protease, this compound registered a Ki of 0.0053 nM. The EC50 in [3] stood at 6.9 nM.

Consider `COc1ccc(C[C@H](NC(=O)O[C@H]2CO[C@H]3OCC[C@H]32)[C@H](O)CN(CC(C)C)S(=O)(=O)c2ccc(OC)cc2)cc1`, for which the entries for the “Ratio EC50” value in series [4] and in [6] were 157 and 17, respectively. Besides, the 50% effective concentration (EC50) in [3] was 0.06 nM.

`COC(=O)c1ccc(C[C@H](NC(=O)O[C@H]2CO[C@H]3OCC[C@H]32)[C@H](O)CN(CC(C)C)S(=O)(=O)c2ccc(OC)cc2)cc1`: the “Ratio EC50” value worked out at 11 in series [4] and 1.2 in series [6]. In addition, the affinity at Protease corresponds to a Ki of 0.0054 nM. Also, the half-maximal effective concentration (EC50) in series [3] stood at 0.3 nM.

With `CCOP(=O)(OCC)c1ccc(C[C@H](NC(=O)O[C@H]2CO[C@H]3OCC[C@H]32)[C@H](O)CN(CC(C)C)S(=O)(=O)c2ccc(OC)cc2)cc1`, the “Ratio EC50” value turned out to be 4.5 in series [4] and 0.5 in series [6]. The compound also came in with an inhibition constant Ki at Protease of 0.0012 nM. The concentration for a half-maximal effect (EC50) in series [3] amounted to 7.5 nM.

`CCOP(=O)(Cc1ccc(C[C@H](NC(=O)O[C@H]2CO[C@H]3OCC[C@H]32)[C@H](O)CN(CC(C)C)S(=O)(=O)c2ccc(OC)cc2)cc1)OCC`: the “Ratio EC50” value in series [4] was determined as 36; in [6] it was 5.8; in series [15], 2.4. This compound came in with an inhibition constant (Ki) at Protease of 0.0084 nM. For the same compound, the EC50 in [3] was 5.9 nM.

Turning to `CCOP(=O)(CCc1ccc(C[C@H](NC(=O)O[C@H]2CO[C@H]3OCC[C@H]32)[C@H](O)CN(CC(C)C)S(=O)(=O)c2ccc(OC)cc2)cc1)OCC`, the results for the “Ratio EC50” value in series [4], in [6] and in [15] were 3.1, 0.4 and 2.6, respectively. This compound returned an inhibition constant Ki at Protease of 0.0091 nM. Further, the EC50 in series [3] was determined as 2.1 nM.

`COc1ccc(S(=O)(=O)N(CC(C)C)C[C@@H](O)[C@H](Cc2ccc(OCP(=O)(OC)OC)cc2)NC(=O)O[C@H]2CO[C@H]3OCC[C@H]32)cc1` yielded a Ki on Protease of 0.0181 nM. In series [6], the “Ratio EC50” value stood at 0.3. The EC50 in series [3] turned out to be 18.8 nM.

Regarding `COc1ccc(S(=O)(=O)N(CC(C)C)C[C@@H](O)[C@H](Cc2ccc(OCP(=O)(OC(C)C)OC(C)C)cc2)NC(=O)O[C@H]2CO[C@H]3OCC[C@H]32)cc1`, the “Ratio EC50” value in [4] was determined as 6; in series [6], 1.3; in [15] it was 3.6. Affinity at Protease was put at a Ki of 0.0057 nM. Also, the half-maximal effective concentration (EC50) in series [3] came to 1.9 nM.

For `COc1ccc(S(=O)(=O)N(CC(C)C)C[C@@H](O)[C@H](Cc2ccccc2)NC(=O)O[C@H]2CO[C@H]3OCC[C@H]32)cc1`, in series [3], the EC50 worked out at 0.35 nM.

For `CC(C)(C)NC(=O)[C@@H]1CN(Cc2cccnc2)CCN1C[C@@H](O)C[C@@H](Cc1ccccc1)C(=O)N[C@H]1c2ccccc2C[C@H]1O`, the values for the CC50 at 120 h in series [1] and in series [2] were 74700 nM and above 100000 nM, respectively. In addition, the 50% effective concentration (EC50) in series [3] amounted to 12.4 nM.

Consider `Cc1c(O)cccc1C(=O)N[C@@H](CSc1ccccc1)[C@H](O)CN1C[C@H]2CCCC[C@H]2C[C@H]1C(=O)NC(C)(C)C`, for which the “Ratio EC50” value is given as 16.5 in series [4]; 30.6 in [5]; above 92 in series [6]; 26 in [7]; above 68 in series [8]; 19.2 in series [15]. Also, the “Ratio EC50” value in series [9] is 25.4. Also, the half-maximal cytotoxic concentration (CC50) at 120 h in series [1] is 7400 nM; in series [2], 19100 nM. The compound also had an inhibitory constant (Ki) at Protease of 0.732 nM. Also, the EC50 in [3] is 4.9 nM.

With `COC(=O)N[C@H](C(=O)N[C@@H](Cc1ccccc1)[C@@H](O)CN(Cc1ccc(-c2ccccn2)cc1)NC(=O)[C@@H](NC(=O)OC)C(C)(C)C)C(C)(C)C` [ATAZANAVIR], the “Ratio EC50” value in [4] is reported as 1.9; in series [5] it was 102; in [6] it was above 100; in [7], 43.9; in series [8], 141; in series [15], 2.4. Further, in series [9], the “Ratio EC50” value was 127. The CC50 at 120 h in series [1] came to 26500 nM; in series [2], 79800 nM. The Ki on Protease came out at 0.0479 nM. Besides, the results for the CLH in the series on Liver microsome [18] and in the series with Liver microsome [19] were 0.9 µL/min/mg and 1.4 µL/min/mg, respectively. The microsomal CLint in series [12] was found to be 23 µL/min/mg. Moreover, the EC50 in series [3] was 2.2 nM.

Take `Cc1cccc(C)c1OCC(=O)N[C@@H](Cc1ccccc1)[C@@H](O)C[C@H](Cc1ccccc1)NC(=O)[C@H](C(C)C)N1CCCNC1=O` [LOPINAVIR]: the cytotoxic concentration (CC50) at 120 h was 27800 nM in [1] and 67900 nM in [2]. Further, the microsomal CLint stood at 2.7 µL/min/mg in series [10], 1.6 µL/min/mg in series [11] and 544 µL/min/mg in series [12]. The 50% effective concentration (EC50) in [3] worked out at 5.6 nM.

`CC(C)c1nc(CN(C)C(=O)N[C@H](C(=O)N[C@@H](Cc2ccccc2)C[C@H](O)[C@H](Cc2ccccc2)NC(=O)OCc2cncs2)C(C)C)cs1` [RITONAVIR]: the 50% effective concentration (EC50) in [3] was 32.2 nM.
